For data set [1] the following is noted: when used alone; cited from earlier work.
The nature of data set [2]: Example 2: two siblings given digoxin daily. To be noted: for improvement in pain levels and functionality: both patients. It counts as in vivo, human. The protocol: Two siblings with severe rheumatoid arthritis characterized by progressive pain, stiffness and swelling of joints in spite of treatment with NSAIDs, narcotics, and immunosuppressants were given 0.125 mg of digoxin daily. No response was noted until the 5th day of treatment at which time both patients reported about a 10% improvement in pain levels and functionality, 2 weeks later the dose of digoxin was doubled to 0.25 mg and the patients both noted a proportional improvement in pain levels and functionality to 20%.

Assay in data set [3]: not given
This is another data set of the same source.

As for `CN(Cc1cnc2nc(N)nc(N)c2n1)c1ccc(C(=O)N[C@@H](CCC(=O)O)C(=O)O)cc1` [Methotrexate], the “effectiveness of prior therapy” value (Methotrexate 5-10 mg q week with calcipotriene, phototherapy and NSAIDs, prior 4 months) is reported as “moderately effective”.
Turning to `C[C@H]1O[C@@H](O[C@H]2[C@@H](O)C[C@H](O[C@H]3[C@@H](O)C[C@H](O[C@H]4CC[C@@]5(C)[C@H](CC[C@@H]6[C@@H]5C[C@@H](O)[C@]5(C)[C@@H](C7=CC(=O)OC7)CC[C@]65O)C4)O[C@@H]3C)O[C@@H]2C)C[C@H](O)[C@@H]1O` [digoxin, 4-[(3S,5R,8R,9S,10S,12R,13S,14S,)-3-[(2S,4S,5R,6R)-5-[(2S,4S,5R,6R)-5-[(2S,4S,5R,6R)-4,5-dihydroxy-6-methyl-oxan-2-yl]oxy-4-hydroxy-6-methyl-oxan-2-yl]oxy-4-hydroxy-6-methyl-oxan-2-yl]oxy-12,14-dihydroxy-10,13-dimethyl-1,2,3,4,5,6,7,8,9,11,12,15,16,17-tetradecahydrocyclopenta[a]phenanthren-17-yl]-5H-furan-2-one], in data set [1], the “plasma digoxin concentration at which adverse reactions are rare” value is less than 0.8 µg/L. Moreover, the “improvement in pain levels and functionality” value is roughly 10% in data set [2] (0.125 mg of digoxin daily, 5th day of treatment) and 20% in data set [2] (dose doubled to 0.25 mg 2 weeks later). The side effects result in data set [2] (digoxin 0.125 mg then 0.25 mg) is “No side effects”. The joint pain result (for one month, next monthly visit) is given as “abated”. Further, the “psoriasis at follow up” value (remained on 0.125 mg of digoxin, 2 months later, elbows and ankles, with return of joint pain) was “mild recrudescence”. In data set [3] (0.125 mg of digoxin, within 3 days), the “regression of wound area” value is listed as “about 20%”.
Regarding `OC(Cn1cncn1)(Cn1cncn1)c1ccc(F)cc1F` [fluconazole], the “change in the affected area” value in data set [3] (1 week of treatment, before digoxin) is recorded as “no change”.

The record behind these values is patent US20160331771A1, “Treatment of Hyperproliferative Disorders Using Cardiac Glycosides” (EpicentRx, Inc., priority 2008, published 2016).
